Assay results taken from patent US12622925B2 (priority 2018, dated 2026).

Tested on: Hydra vulgaris
Assay type: in vivo
Conditions: results in 100% hydra mortality in 92 h
Protocol: Hydra vulgaris were obtained from Environment Canada (Montreal, Qc) and maintained at 18° C. The hydra classification method (Wilby, O. K., Tesh, J. M., & Shore, P. R., 1990) was used with modification to rate morphology of the adult hydra as an indicator of solution toxicity. In this assay, the scoring of hydra morphology is objective and repeatable with representation in detail in previous literature. The assay included monitoring times at shorter intervals during the first two days (0, 4, 20, and 28 h) and 24 h intervals for the last three days (44, 68, and 92 h). Solutions were not changed during testing. The hydra morphological response was scored and recorded after exposure of toxin with and without sorbent treatment. Mature and non-budding hydra in similar sizes were chosen for testing in order to minimize differences between samples. Controls for this experiment included hydra media. […] The score or average toxicity rating was determined by calculating the average score for morphological changes for a certain group at a specific time point.
FIG. 2 is a depiction of the hydra morphology scale by Wilby (1988): The scale is graded from 0-10, where 10 represents a normal living hydra and 0 represents a disintegrated hydra. The physiologic conditions of hydra were assessed with a dissecting microscope.

## C[C@H]1CCCC(=O)CCC/C=C/c2cc(O)cc(O)c2C(=O)O1 [ZEN, zearalenone]
  minimal effective concentration (MEC): 4 ppm
